Data: ChEMBL document CHEMBL1152528, “Synthesis and kinase inhibitory activity of novel substituted indigoids” (Bioorg Med Chem, 2009)

Experiments:
[1] = Inhibition of Marthasterias glacialis CDK1/cyclin-B assessed as [gamma-33P]ATP incorporation after 10 mins by scintillation counting
[2] = target: Cyclin-dependent kinase 5/CDK5 activator 1 (Homo sapiens, UniProt Q00535); experiment: Inhibition of GST-fused CDK5/p25 expressed in Escherichia coli assessed as [gamma-33P]ATP incorporation after 10 mins by scintillation counting
[3] = target: Glycogen synthase kinase-3 (Sus scrofa, UniProt B2LUN4+I6LNT8); experiment: Inhibition of porcine brain GSK3alpha/beta assessed as [gamma-33P]ATP incorporation after 30 mins by scintillation counting
[4] = Inhibition of porcine brain CK1 assessed as [gamma-33P]ATP incorporation after 10 mins by scintillation counting; parameters: species or system Sus scrofa
[5] = target: Dual specificity tyrosine-phosphorylation-regulated kinase 1A (Rattus norvegicus, UniProt Q63470); experiment: Inhibition of GST-fused rat recombinant DYRK1A expressed in Escherichia coli assessed as [gamma-33P]ATP incorporation after 10 mins by scintillation counting
Huh-7 = experiment: Antiproliferative activity against human HuH7 cells after 72 hrs by imaging analysis; assay type: functional, cell-based; settings: Huh-7, 72 h
Caco-2 = experiment: Antiproliferative activity against human Caco-2 cells after 72 hrs by imaging analysis; assay type: functional, cell-based; settings: Caco-2, 72 h
HCT-116 = experiment: Antiproliferative activity against human HCT116 cells after 72 hrs by imaging analysis; assay type: functional, cell-based; settings: HCT-116, 72 h
PC-3 = experiment: Antiproliferative activity against human PC3 cells after 72 hrs by imaging analysis; assay type: functional, cell-based; settings: PC-3, 72 h
[6] = Antiproliferative activity against human NCI/ADR cells after 72 hrs by imaging analysis; assay type: functional, cell-based; settings: NCI/ADR-RES
[7] = Antiproliferative activity against human fibroblast after 72 hrs by imaging analysis; assay type: cell-based

Sequence of Cyclin-dependent kinase 5/CDK5 activator 1 (Q00535 whole entry, the tested form may be a part): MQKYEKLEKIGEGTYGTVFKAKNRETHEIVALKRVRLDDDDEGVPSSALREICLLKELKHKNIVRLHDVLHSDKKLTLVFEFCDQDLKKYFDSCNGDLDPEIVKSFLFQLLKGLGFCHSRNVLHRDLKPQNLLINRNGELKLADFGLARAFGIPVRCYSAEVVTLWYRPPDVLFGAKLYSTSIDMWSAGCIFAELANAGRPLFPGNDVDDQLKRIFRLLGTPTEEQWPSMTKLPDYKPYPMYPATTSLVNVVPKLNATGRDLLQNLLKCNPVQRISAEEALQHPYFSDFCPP
Sequence of Cyclin-dependent kinase 5/CDK5 activator 1 (Q15078 whole entry, further chain, the tested form may be a part): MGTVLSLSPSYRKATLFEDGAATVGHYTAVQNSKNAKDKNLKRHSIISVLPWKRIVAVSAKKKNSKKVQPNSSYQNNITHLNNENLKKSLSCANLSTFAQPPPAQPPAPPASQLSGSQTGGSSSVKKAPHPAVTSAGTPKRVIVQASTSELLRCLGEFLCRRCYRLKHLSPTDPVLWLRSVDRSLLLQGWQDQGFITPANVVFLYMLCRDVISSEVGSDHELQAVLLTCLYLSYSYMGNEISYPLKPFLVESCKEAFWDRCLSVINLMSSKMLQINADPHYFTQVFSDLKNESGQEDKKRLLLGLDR

Compound | IC50 [1] | IC50 [2] | IC50 [3] | IC50 [4] | IC50 [5] | IC50 (Huh-7) | IC50 (Caco-2) | IC50 (HCT-116) | IC50 (PC-3) | IC50 [6] | IC50 [7]
O=C1C(c2c(O)[nH]c3ccc([N+](=O)[O-])cc23)=Nc2ccccc21 | 40 µM | 25 µM | 19 µM | > 10 µM | > 10 µM | – | – | – | – | – | –
O=Nc1c(-c2c(O)[nH]c3ccc([N+](=O)[O-])cc23)[nH]c2ccccc12 | 0.019 µM | 0.006 µM | 0.0021 µM | > 10 µM | 1.3 µM | – | – | – | – | – | –
O=C1Nc2cc([N+](=O)[O-])ccc2/C1=C1/Nc2ccccc2C1=O | > 10 µM | > 10 µM | 60 µM | > 10 µM | – | > 25 µM | 3 µM | 5 µM | 15 µM | 2 µM | > 25 µM
Nc1ccc2c(c1)/C(=C1/Nc3ccccc3C1=O)C(=O)N2 | 1.5 µM | 0.59 µM | 0.08 µM | 0.65 µM | 2.5 µM | 6 µM | 2 µM | 15 µM | 5 µM | 20 µM | > 25 µM
O=C1Nc2cc([N+](=O)[O-])ccc2/C1=C1/Nc2ccccc2/C1=N\O | 0.18 µM | 0.12 µM | 0.04 µM | 0.6 µM | – | – | – | – | – | – | –
O=C1Nc2c(Br)cc([N+](=O)[O-])cc2/C1=C1/Nc2ccccc2/C1=N\O | > 10 µM | > 10 µM | > 10 µM | > 10 µM | > 10 µM | – | – | – | – | – | –
O=C1Nc2ccccc2/C1=C1\C(=O)Nc2ccc([N+](=O)[O-])cc21 | – | – | – | – | – | > 25 µM | > 25 µM | > 25 µM | > 25 µM | 25 µM | > 25 µM
O=C1Nc2c(Br)cc([N+](=O)[O-])cc2/C1=C1/Nc2ccccc2C1=O | > 10 µM | > 10 µM | > 10 µM | > 10 µM | > 10 µM | – | – | – | – | – | –
O=C1Nc2c(Br)cc([N+](=O)[O-])cc2/C1=C1/Nc2ccc(Br)cc2C1=O | > 10 µM | > 10 µM | > 10 µM | > 10 µM | > 10 µM | – | – | – | – | – | –
O=C1Nc2cc([N+](=O)[O-])ccc2/C1=C1/Nc2ccc(Br)cc2C1=O | > 10 µM | > 10 µM | > 10 µM | > 10 µM | – | – | – | – | – | – | –
Nc1ccc2c(c1)NC(=O)/C2=C1\Nc2ccccc2C1=O | 30 µM | 4 µM | 0.36 µM | 16 µM | – | > 25 µM | 5 µM | > 25 µM | 25 µM | 25 µM | > 25 µM
Nc1ccc2c(c1)/C(=C1\C(=O)Nc3ccccc31)C(=O)N2 [(3'Z)-5-AMINOISOINDIGO] | – | – | – | – | – | > 25 µM | > 25 µM | > 25 µM | 25 µM | 25 µM | > 25 µM
CC(=O)O[C@H]1C(=O)[C@@]2(C)[C@H]([C@H](OC(=O)c3ccccc3)[C@]3(O)C[C@H](OC(=O)[C@H](O)[C@@H](NC(=O)c4ccccc4)c4ccccc4)C(C)=C1C3(C)C)[C@]1(OC(C)=O)CO[C@@H]1C[C@@H]2O [PACLITAXEL] | – | – | – | – | – | 0.008 µM | 0.02 µM | < 0.0008 µM | < 0.0008 µM | 0.004 µM | 0.03 µM
CC[C@H](CO)Nc1nc(NCc2ccccc2)c2ncn(C(C)C)c2n1 [SELICICLIB] | – | – | – | – | – | 5 µM | – | 5 µM | 8 µM | 6 µM | > 25 µM

Now from value to molecule, other results behind:

IC50 [1] | IC50 [2] | IC50 [3] | IC50 [4] | IC50 [5] | IC50 (Huh-7) | IC50 (Caco-2) | IC50 (HCT-116) | IC50 (PC-3) | Compound | IC50 [6] | IC50 [7]
0.16 µM | 0.05 µM | 0.055 µM | > 10 µM | > 10 µM | – | – | – | – | O=C1Nc2ccc([N+](=O)[O-])cc2/C1=C1/Nc2ccc(Br)cc2/C1=N/O | – | –
0.088 µM | 0.16 µM | 0.35 µM | 0.4 µM | 15 µM | – | – | – | – | CC(=O)Nc1ccc2c(c1)/C(=C1/Nc3ccccc3/C1=N\O)C(=O)N2 | – | –
0.05 µM | 0.018 µM | 0.0075 µM | 8 µM | 2.5 µM | 2 µM | 5 µM | 2 µM | 2 µM | CC(=O)Nc1ccc2c(c1)/C(=C1/Nc3ccccc3C1=O)C(=O)N2 | 10 µM | > 25 µM
1 µM | 0.2 µM | 0.18 µM | 0.5 µM | – | – | – | – | – | Nc1ccc2c(c1)NC(=O)/C2=C1\Nc2ccccc2\C1=N/O | – | –
1.4 µM | 3.3 µM | 40 µM | > 10 µM | > 10 µM | – | – | – | – | CC(=O)Nc1ccc2c(c1)/C(=C1/Nc3ccc(Br)cc3/C1=N\O)C(=O)N2 | – | –
> 10 µM | > 10 µM | > 10 µM | > 10 µM | > 10 µM | – | – | – | – | O=C1Nc2ccc([N+](=O)[O-])cc2/C1=C1/Nc2ccc(Br)cc2C1=O | – | –
0.1 µM | 0.15 µM | 0.36 µM | 0.13 µM | 4.2 µM | – | – | – | – | Nc1ccc2c(c1)/C(=C1/Nc3ccccc3/C1=N\O)C(=O)N2 | – | –
0.055 µM | 0.11 µM | 0.073 µM | > 10 µM | 7.3 µM | – | – | – | – | CC(=O)Nc1ccc2c(c1)/C(=C1/Nc3ccc(Br)cc3C1=O)C(=O)N2 | – | –
> 10 µM | > 10 µM | > 10 µM | > 10 µM | > 10 µM | – | – | – | – | O=C1Nc2c(Br)cc([N+](=O)[O-])cc2/C1=C1/Nc2ccc(Br)cc2/C1=N\O | – | –
0.41 µM | 1 µM | 6.6 µM | > 10 µM | > 10 µM | – | – | – | – | Nc1ccc2c(c1)/C(=C1/Nc3ccc(Br)cc3/C1=N\O)C(=O)N2 | – | –
7 µM | 0.3 µM | 0.7 µM | 18 µM | – | – | – | – | – | O=C1Nc2cc([N+](=O)[O-])ccc2/C1=C1/Nc2ccc(Br)cc2/C1=N\O | – | –
0.6 µM | 0.55 µM | 0.44 µM | 2.7 µM | > 10 µM | – | – | – | – | Nc1ccc2c(c1)/C(=C1/Nc3ccc(Br)cc3C1=O)C(=O)N2 | – | –
